Reference: patent publication US5506147A, “Non-invasive evaluation of maldigestion and malaborption” (priority 1994, dated 1996)
Where “and” joins values, the source holds several entries; their conditions need not be identical. Equal values may be shown once.

Assays:
[1] = tested on: chymotrypsin; test: Bentiromide test with stable isotope PABA, serum PABA ratio by GC/MS (Pancreatic Ratio); format: in vivo, human
Protocol: The abundance of PABA and PABA isotope of the type administered to the patient in the 0-time sample is determined and compared to the abundance of PABA (from cleavage of bentiromide) and isotope PABA in the second sample. After adjustment for differences in the abundance of the identical quantities of PABA isotope used for standardization placed in the assay, the value of PABA in the 0-time sample is subtracted from the abundance of the PABA in the second sample (a like correction is also applied to the PABA isotope of the type administered) and a ratio of natural PABA to PABA isotope of the type administered is then determined. Individuals with a ratio greater than 0.32 are considered normal, individuals with a ratio of 0.28-0.32 are considered indeterminate, individuals with a ratio of less than 0.28 are considered abnormal.
Pancreatic and small bowel function were simultaneously evaluated using a gas chromatographic mass spectrometric (GC/MS) method on serum samples. In this method, xylose absorption was quantitated using [^13 C]1 -xylose, a stable isotope of xylose. Absorption of p-aminobenzoic acid (PABA), released from bentiromide by the action of endogenous chymotrypsin, was compared to the absorption of stable isotope PABA (^13 C6), administered orally simultaneously with bentiromide. The ratio (Pancreatic Ratio) of bentiromide PABA to stable isotope PABA in 60-minute sera samples was determined and expressed as a fraction and quantitated relative to added 2,6[^2 H]2 -PABA.
A person presented with diarrhea and hyperthyroidism and was also noted to have significant steatorrhea (63 g fat/24 hours). The patient was further evaluated with standard serum D-xylose testing, which was abnormal (13 mg/dl, nl 20-40). […] The patient then was given the above GC/MS test. A 0-time 10 ml blood sample was taken; 6.7 mg of bentiromide was administered along with 2.0 mg of stable isotope PABA and 5 g D-xylose, and 8 fl. oz of Resource. Sixty minutes later, 10 ml of blood was drawn. The sera after clotting was collected and the PABA, [^13 C]6 -PABA and xylose were purified and assayed by GC/MS.
At 0-time, a blood sample was taken from all patients in the amount of 10 ml, yielding 4-6 ml of serum, an aliquot of which was analyzed by GC/MS for PABA content.
Bentiromide in the amount of 6.7 mg and stable isotope PABA ([^13 C]6 -PABA) in the amount of 2 mg was administered to normal patients and patients with various pancreatic injuries after Internal Review Board approval. After an overnight fast (nothing by mouth after midnight except water or coffee with cream), a 0-time blood sample was drawn. The patients then drank 8 oz. of Resource followed immediately (within less than five minutes) by the test solution comprising 6.7 mg bentiromide, 2 mg stable isotope PABA, and 5 grams of D-xylose dissolved in 30 cc (1 oz.) of water. Sixty minutes later, 10 mls of blood were drawn and the subjects dismissed.
Serum collected one hour after the test meal was analyzed by GC/MS for the ratio of natural PABA to stable isotope PABA. The simultaneous administration of stable isotope PABA with bentiromide corrects for variations in gastric emptying, intestinal absorption, renal function and interfering substances in serum.
Bentiromide and stable isotope PABA were administered as set forth in Example 2 to four groups of patients designated A, B, C, and D on the X axis of FIG. 1. The ratio of labelled (i.e. stable isotope PABA) to bentiromide PABA in sera at 60 minutes is shown on the Y axis.
Several types of columns are used in this analysis and these include a strong anion exchange column (SAX), a strong cation exchange column (SCX), and a C18 column. The SAX and SCX columns are prepared in disposable plastic columns containing 50 mg of each resin. Prior to use, the column is prepared by a column volume of methanol followed by four washings with four column volumes of water. […]

[2] = tested on: chymotrypsin; conditions: cited from earlier work
[3] = clinical; set-up: species or system human; conditions: in vivo
Description: Xylose is purified for detection by GC/MS by the process shown in Example 7. The purification process involves rapid deproteination and two-hour derivatization. The analysis involves the examination of one specific ion (M/Z 417) of one specific anomeric peak. Because of natural anomers and possibly incomplete derivatization of carbohydrates, xylose may show several peaks on GC/MS. It is necessary to use a peak providing a linear assay. In the present assay, using a ten-meter column, xylose elutes at 6.6 minutes when the temperature is ramped from 80°-300° C. using helium gas at a head pressure of 50 psi. A second smaller peak elutes at 6.7 minutes. […]
The xylose is also measured in the second fluid sample by GC/MS. […] A value less than or equal to about 2.5 mg/dl is read as abnormal.
Pancreatic and small bowel function were simultaneously evaluated using a gas chromatographic mass spectrometric (GC/MS) method on serum samples. In this method, xylose absorption was quantitated using [^13 C]1 -xylose, a stable isotope of xylose. […] The ratio (Pancreatic Ratio) of bentiromide PABA to stable isotope PABA in 60-minute sera samples was determined and expressed as a fraction and quantitated relative to added 2,6[^2 H]2 -PABA. […]
17. Place supernatant fluid into autosampler vial and examine by GC/MS using ^13 C1 -xylose as a standard for quantitation The derivatized xylose has four peaks. […]

[4] = human, in vivo, po
Protocol: The serum xylose test is one of the best non-invasive methods for diagnosing intestinal malabsorption. In this test, D-xylose, a five-carbon sugar not naturally present in the body or in foodstuffs, is given orally and an estimation of the increase in serum xylose content is carried out through colorimetric determination (CD) of non-glucose reducing sugars in serum. However, the test is occasionally misleading by giving both false positive and false negative results. Older xylose tests measured xylose in the urine. Problems with this test include the fact that the Roe and Rice method of D-xylose analysis is non-specific and cross-reacts partially with glucose. […] Furthermore, the test critically depends on complete emptying of the urinary bladder at five hours and on intact renal function.
An isotope dilution assay was developed for serum xylose using GC/MS to compare to the CD of serum xylose from a commercial diagnostic company to see if variations in the analysis itself may be a contributing cause to the misleading clinical results. Since GC/MS analysis relies on both column separation and mass identification, it is more specific for xylose determination than CD.

[5] = Alcoholic Pancreatitis (n = 4), serum one hour
[6] = Cystic Fibrosis (n = 16), serum one hour
[7] = Other Pancreatitis (n = 4), serum one hour

Structure (SMILES): O=C(O)c1ccc(NC(=O)[C@H](Cc2ccc(O)cc2)NC(=O)c2ccccc2)cc1 [Bentiromide, N-benzoyl-L-tyrosyl-p-aminobenzoic acid]
- Ratio in % of Natural PABA to Stable Isotope PABA [1, 5]: 5 ± 6%
- Ratio in % of Natural PABA to Stable Isotope PABA, range [1, 5]: 0-14%
- Ratio in % of Natural PABA to Stable Isotope PABA [1, 6]: 4 ± 3%
- Ratio in % of Natural PABA to Stable Isotope PABA, range [1, 6]: 0-11%
- PABA ratio in sera at 60 minutes, FIG. 1 ([1]; Group B, cystic fibrosis): < 0.32
- PABA ratio in sera at 60 minutes, FIG. 1 (in words) ([1]; Group C, failed to improve on pancreatic supplementary enzymes): this entire Group C is normal
- Ratio in % of Natural PABA to Stable Isotope PABA, range ([1]; Normals (n = 38), serum one hour): 34-200%
- Ratio in % of Natural PABA to Stable Isotope PABA ([1]; Normals (n = 38), serum one hour after 6.7 mg bentiromide and 2 mg [^13 C]6 -PABA): 80 ± 20%
- Ratio in % of Natural PABA to Stable Isotope PABA [1, 7]: 7 ± 6%
- Ratio in % of Natural PABA to Stable Isotope PABA, range [1, 7]: 1-16%
- Ratio in % of Natural PABA to Stable Isotope PABA ([1]; Partial Pancreatectomy (n = 2), individual values, serum one hour): 2% and 37%
- ratio of natural PABA to PABA isotope ([1]; patients with documented pancreatic insufficiency, 60-minute samples): ≤ 0.18
- Pancreatic Ratio ([1]; person with steatorrhea, sixty minutes, 6.7 mg bentiromide, 2.0 mg stable isotope PABA, nl greater than 0.32): 0.06
- plasma bentiromide test result in cystic fibrosis patients [2]: abnormally low

Structure (SMILES): O=C[C@H](O)[C@@H](O)[C@H](O)CO [xylose, D-xylose]
- concentration at 1 h ([3]; human, po): 150 µg/mL
- xylose analysis, FIG. 4 (in words) [3]: low
- standard serum D-xylose testing [4]: 13 mg/dL
- xylose content by CD, sera post xylose administration [4]: 3 to 52 mg/dL

Structure (SMILES): [2H]c1c([2H])c(C(=O)O)c([2H])c([2H])c1N [Example 12, 4-aminobenzoic-2,3,5,6-[^2 H]4]
- back exchange (boiling water): lack of reaction in boiling water
- decomposition (hot dilute acid): extensive decomposition in hot dilute acid
